The source made the active and inactive calls. The rule behind the calls is not given here.

Our source for the Activity and IC50 values is ChEMBL document CHEMBL1130542, “Design and synthesis of an -mannosyl terpenoid as selective inhibitor of P-selectin” (Bioorg Med Chem Lett, 1997).

Assay [1] has as its target T1, E-selectin (Homo sapiens) (UniProt P16581).
T1 sequence (whole entry): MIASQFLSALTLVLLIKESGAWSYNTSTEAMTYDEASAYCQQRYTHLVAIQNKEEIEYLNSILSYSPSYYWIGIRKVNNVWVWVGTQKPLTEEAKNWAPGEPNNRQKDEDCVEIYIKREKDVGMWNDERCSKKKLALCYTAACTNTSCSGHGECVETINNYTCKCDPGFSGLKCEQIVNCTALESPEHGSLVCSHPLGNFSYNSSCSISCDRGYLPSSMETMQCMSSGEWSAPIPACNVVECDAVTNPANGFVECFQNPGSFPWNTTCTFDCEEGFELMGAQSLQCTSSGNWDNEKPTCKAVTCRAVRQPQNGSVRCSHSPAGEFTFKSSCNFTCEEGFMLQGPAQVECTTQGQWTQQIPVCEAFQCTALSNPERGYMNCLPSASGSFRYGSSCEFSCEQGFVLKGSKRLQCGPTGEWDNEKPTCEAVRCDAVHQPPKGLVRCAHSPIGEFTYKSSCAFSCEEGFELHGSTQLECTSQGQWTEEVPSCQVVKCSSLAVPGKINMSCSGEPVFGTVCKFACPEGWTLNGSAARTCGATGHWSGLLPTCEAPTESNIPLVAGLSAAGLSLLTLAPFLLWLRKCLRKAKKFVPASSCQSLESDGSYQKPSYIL
The assay is described as follows: Inhibitory activity against Selectin E was determined; IA=Inactive.

For assay [2], the target named is T2, L-selectin (Homo sapiens) (UniProt P14151).
T2 sequence (whole entry): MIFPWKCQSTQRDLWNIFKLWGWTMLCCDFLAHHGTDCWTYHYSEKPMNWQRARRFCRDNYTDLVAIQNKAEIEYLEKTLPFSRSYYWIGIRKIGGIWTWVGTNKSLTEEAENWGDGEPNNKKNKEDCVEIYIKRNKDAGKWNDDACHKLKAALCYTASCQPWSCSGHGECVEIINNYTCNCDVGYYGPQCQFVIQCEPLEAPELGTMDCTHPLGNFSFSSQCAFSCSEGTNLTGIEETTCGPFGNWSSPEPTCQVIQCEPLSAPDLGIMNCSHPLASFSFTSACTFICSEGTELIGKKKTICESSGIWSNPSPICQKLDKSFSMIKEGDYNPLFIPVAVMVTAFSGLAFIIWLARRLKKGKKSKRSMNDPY
The assay is described as follows: Inhibitory activity against L-selectin was determined; IA=Inactive.

In assay [3] the target is T3, P-selectin (Homo sapiens, UniProt P16109).
T3 sequence (P16109 whole entry): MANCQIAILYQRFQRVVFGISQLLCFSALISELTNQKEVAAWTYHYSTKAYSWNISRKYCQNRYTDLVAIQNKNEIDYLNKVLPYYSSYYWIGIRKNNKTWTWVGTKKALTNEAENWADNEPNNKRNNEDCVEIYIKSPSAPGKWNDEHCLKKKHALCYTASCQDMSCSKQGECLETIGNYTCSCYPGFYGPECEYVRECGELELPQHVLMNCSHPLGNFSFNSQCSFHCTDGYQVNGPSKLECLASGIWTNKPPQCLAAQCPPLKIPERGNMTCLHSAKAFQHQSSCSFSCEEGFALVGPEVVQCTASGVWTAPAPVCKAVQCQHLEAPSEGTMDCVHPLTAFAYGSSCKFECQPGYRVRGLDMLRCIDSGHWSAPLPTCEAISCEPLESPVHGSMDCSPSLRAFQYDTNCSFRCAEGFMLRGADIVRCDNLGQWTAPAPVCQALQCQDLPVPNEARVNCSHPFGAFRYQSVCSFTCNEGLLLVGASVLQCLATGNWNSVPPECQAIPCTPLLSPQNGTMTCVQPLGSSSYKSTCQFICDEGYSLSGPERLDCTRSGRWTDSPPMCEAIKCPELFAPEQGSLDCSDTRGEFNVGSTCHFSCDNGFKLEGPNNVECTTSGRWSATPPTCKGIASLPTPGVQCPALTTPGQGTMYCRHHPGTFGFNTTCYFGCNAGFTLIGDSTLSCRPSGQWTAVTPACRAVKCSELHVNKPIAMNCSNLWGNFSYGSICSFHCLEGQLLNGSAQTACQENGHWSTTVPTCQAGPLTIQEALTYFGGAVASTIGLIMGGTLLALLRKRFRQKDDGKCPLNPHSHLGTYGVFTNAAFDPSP
The assay is described as follows: Inhibitory activity against P-selectin was determined.

Assay [4] addresses T4, P-selectin (Homo sapiens) (UniProt P16109).
T4 sequence (whole entry): T3 sequence (P16109 whole entry)
In words: Inhibitory activity against P-selectin was determined; IA=Inactive.

As for `C[C@@]12CCC[C@@](C)(C(=O)O)C1CC[C@@]13C[C@@H](O[C@H]4O[C@H](CO)[C@@H](O)[C@@H](O)[C@@H]4O)[C@@](C)(CCC12)C3` (stereo partly specified), the outcome in assay [1] and in assay [2] was inactive. The IC50 (as a rule, the concentration needed to halve the response being measured) in assay [3] was found to be 60 µM.

In the case of `C[C@@]12CCC[C@@](C)(C(=O)O)C1CC[C@]13C[C@H](O[C@H]4O[C@H](CO)[C@@H](O)[C@@H](O)[C@@H]4O)[C@](O)(CCC12)C3` (stereo partly specified), the outcome in assay [1], in assay [4] and in assay [2] was inactive.
